Test system: SEM cells
Test: cell viability relative to DMSO control; higher = less cytotoxic
Conditions: 48 h
Summary of the method: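 Viability is a per-plate percentage relative to DMSO wells, with cell-free wells as background. CellTiter-Glo One luminescence was read after 48 h at 37°C on 1536-well plates (5 μl) of NOMO1 or SEM (500 cells/well) or P12-Ichikawa (1000 cells/well) leukemia cells. The cells had been adapted for at least four passages in each medium and pin-dosed with library compounds in DMSO from 47 μM to 0.79 nM in 11 threefold steps.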

[1] = HPLM + 10% dialyzed FBS, 0.000781 µM
[2] = HPLM + 10% dialyzed FBS, 0.00234 µM
[3] = HPLM + 10% dialyzed FBS, 0.00702 µM
[4] = HPLM + 10% dialyzed FBS, 0.0211 µM
[5] = HPLM + 10% dialyzed FBS, 0.0632 µM
[6] = HPLM + 10% dialyzed FBS, 0.19 µM
[7] = HPLM + 10% dialyzed FBS, 0.569 µM
[8] = HPLM + 10% dialyzed FBS, 1.71 µM
[9] = HPLM + 10% dialyzed FBS, 5.12 µM
[10] = HPLM + 10% dialyzed FBS, 15.4 µM
[11] = HPLM + 10% dialyzed FBS, 46.1 µM
[12] = RPMI 5 mM glucose + 10% FBS, 0.000781 µM
[13] = RPMI 5 mM glucose + 10% FBS, 0.00234 µM
[14] = RPMI 5 mM glucose + 10% FBS, 0.00702 µM
[15] = RPMI 5 mM glucose + 10% FBS, 0.0211 µM
[16] = RPMI 5 mM glucose + 10% FBS, 0.0632 µM
[17] = RPMI 5 mM glucose + 10% FBS, 0.19 µM
[18] = RPMI 5 mM glucose + 10% FBS, 0.569 µM
[19] = RPMI 5 mM glucose + 10% FBS, 1.71 µM
[20] = RPMI 5 mM glucose + 10% FBS, 5.12 µM
[21] = RPMI 5 mM glucose + 10% FBS, 15.4 µM
[22] = RPMI 5 mM glucose + 10% FBS, 46.1 µM
[23] = RPMI 5 mM glucose + 10% dialyzed FBS, 0.000781 µM
[24] = RPMI 5 mM glucose + 10% dialyzed FBS, 0.00234 µM
[25] = RPMI 5 mM glucose + 10% dialyzed FBS, 0.00702 µM
[26] = RPMI 5 mM glucose + 10% dialyzed FBS, 0.0211 µM
[27] = RPMI 5 mM glucose + 10% dialyzed FBS, 0.0632 µM
[28] = RPMI 5 mM glucose + 10% dialyzed FBS, 0.19 µM
[29] = RPMI 5 mM glucose + 10% dialyzed FBS, 0.569 µM
[30] = RPMI 5 mM glucose + 10% dialyzed FBS, 1.71 µM
[31] = RPMI 5 mM glucose + 10% dialyzed FBS, 5.12 µM
[32] = RPMI 5 mM glucose + 10% dialyzed FBS, 15.4 µM
[33] = RPMI 5 mM glucose + 10% dialyzed FBS, 46.1 µM

| SMILES | cell viability [1] [%] | cell viability [2] [%] | cell viability [3] [%] | cell viability [4] [%] | cell viability [5] [%] | cell viability [6] [%] | cell viability [7] [%] | cell viability [8] [%] | cell viability [9] [%] | cell viability [10] [%] | cell viability [11] [%] | cell viability [12] [%] | cell viability [13] [%] | cell viability [14] [%] | cell viability [15] [%] | cell viability [16] [%] | cell viability [17] [%] | cell viability [18] [%] | cell viability [19] [%] | cell viability [20] [%] | cell viability [21] [%] | cell viability [22] [%] | cell viability [23] [%] | cell viability [24] [%] | cell viability [25] [%] | cell viability [26] [%] | cell viability [27] [%] | cell viability [28] [%] | cell viability [29] [%] | cell viability [30] [%] | cell viability [31] [%] | cell viability [32] [%] | cell viability [33] [%] |
| --- | --- | --- | --- | --- | --- | --- | --- | --- | --- | --- | --- | --- | --- | --- | --- | --- | --- | --- | --- | --- | --- | --- | --- | --- | --- | --- | --- | --- | --- | --- | --- | --- | --- |
| Cc1nc(Nc2n[nH]c3c2CN(C(=O)N[C@H](CN(C)C)c2ccccc2)C3(C)C)c2sccc2n1 | 72.2 | 70.6 | 51.6 | 66.4 | 52.6 | 48.5 | 36.6 | 23.8 | 15.7 | 2.46 | 4.3 | 91.2 | 85.9 | 62.8 | 79.1 | 60.3 | 47 | 46 | 25.7 | 15.2 | 1.75 | 3.09 | 82.2 | 73 | 70.1 | 82.1 | 64.2 | 55.1 | 50 | 30.4 | 21.4 | 2.4 | 3.71 |
| CN(C)C1=C(Br)C=C(C=C1)C\2NC3=C(\C4=C2C(=O)CC(C)(C)C4)C5=CC=CC=C5C=C3 (stereo not given) | 113 | 119 | 125 | 130 | 131 | 131 | 113 | 120 | 128 | 120 | 97.8 | 105 | 115 | 137 | 121 | 132 | 123 | 107 | 131 | 116 | 109 | 100 | 93.1 | 112 | 122 | 128 | 127 | 127 | 93.1 | 114 | 126 | 118 | 85.4 |
| Cn1cc(C[C@@H](N)C(=O)O)c2ccccc21 | 92 | 105 | 95.8 | 113 | 112 | 121 | 112 | 111 | 101 | 92.3 | 76.7 | 80 | 50.1 | 79.6 | 94 | 89.8 | 96.4 | 91.1 | 97.9 | 107 | 80.9 | 62.7 | 114 | 92.1 | 102 | 106 | 97.7 | 108 | 98.8 | 97 | 102 | 96.3 | 70 |
| CN1CCN(CCOc2cc(OC3CCOCC3)c3c(Nc4c(Cl)ccc5c4OCO5)ncnc3c2)CC1 | 106 | 119 | 115 | 118 | 122 | 126 | 113 | 116 | 78.4 | 61.6 | 30.3 | 121 | 120 | 128 | 110 | 128 | 109 | 85.5 | 109 | 62.9 | 34.3 | 19.7 |  |  |  |  |  |  |  |  |  |  |  |
| Nc1ncnc2c1nc(Cl)n2[C@@H]1O[C@H](CO)[C@@H](O)[C@H]1O | 118 | 128 | 123 | 125 | 119 | 128 | 115 | 128 | 97.3 | 41.6 | 7.3 | 120 | 130 | 123 | 135 | 136 | 135 | 119 | 130 | 109 | 55 | 8.37 |  |  |  |  |  |  |  |  |  |  |  |
| CCOC1=CC=CC=C1N\2C(=O)C3=C(C=CC=C3)\N=C2C(C)N4CCN(CC4)C(=O)COC5=CC=C(Cl)C=C5 (stereo not given) | 112 | 111 | 111 | 123 | 114 | 115 | 104 | 26.1 | 9.76 | 5.2 | 3.06 | 124 | 115 | 108 | 101 | 110 | 114 | 28 | 6.16 | 4.12 | 3.03 | 1.64 | 113 | 131 | 119 | 116 | 125 | 136 | 68.6 | 9.93 | 6.21 | 4.51 | 2.93 |
| OCc1ccc(-c2ccc(-c3ccc(CO)s3)o2)s1 | 117 | 118 | 94.3 | 115 | 107 | 103 | 104 | 103 | 88.6 | 77.7 | 93.8 | 87.3 | 105 | 83.8 | 81.5 | 79.1 | 87.8 | 79.3 | 80.6 | 77.1 | 61.3 | 66.7 | 114 | 124 | 95.7 | 113 | 119 | 105 | 110 | 99.4 | 83.9 | 85.8 | 114 |
| O=C1NC(=O)/C(=C/c2ccc(-c3ccc(F)cc3O)o2)S1 | 127 | 118 | 110 | 122 | 123 | 111 | 111 | 102 | 124 | 94.1 | 87.1 |  |  |  |  |  |  |  |  |  |  |  | 114 | 129 | 120 | 122 | 112 | 121 | 111 | 84.6 | 87.3 | 98.6 | 74.8 |
| COC1=CC=C2CN(C)CC[C@@]34\C=C/[C@H](O)C[C@@H]3OC1=C24 | 119 | 113 | 115 | 27 | 117 | 111 | 114 | 126 | 103 | 119 | 103 |  |  |  |  |  |  |  |  |  |  |  | 108 | 111 | 126 | 25.3 | 114 | 125 | 104 | 107 | 96.3 | 100 | 99.3 |
| CON(C)C(=O)N1/N=C(S[C@@]1(CCCN)C2=CC=CC=C2)/C3=CC(=CC=C3F)F | 96.3 | 99.9 | 42.5 | 21.7 | 23.9 | 24.4 | 22 | 21.3 | 10.6 | 19.7 | 15.3 |  |  |  |  |  |  |  |  |  |  |  | 100 | 114 | 111 | 30.4 | 24.4 | 22.7 | 24.1 | 24.8 | 13 | 22.2 | 16.4 |
| Cc1c(C)c2c(c(C)c1O)CCC(C)(COc1ccc(CC3SC(=O)NC3=O)cc1)O2 (stereo not given) | 119 | 113 | 127 | 117 | 124 | 117 | 128 | 132 | 141 | 112 | 93.1 |  |  |  |  |  |  |  |  |  |  |  | 104 | 101 | 127 | 106 | 126 | 121 | 136 | 134 | 154 | 95.4 | 84.9 |
| O=C(Nc1cccnn1)N1CCC(=Cc2cccc(Oc3ccc(C(F)(F)F)cn3)c2)CC1 | 81.8 | 86.8 | 84.4 | 21.1 | 94.9 | 98 | 92.5 | 85 | 90 | 81.3 | 75.6 | 104 | 115 | 112 | 17.1 | 119 | 127 | 121 | 139 | 118 | 103 | 87.8 | 92.8 | 92.6 | 89.8 | 17 | 113 | 112 | 106 | 98.4 | 93.7 | 78.3 | 55.8 |
| COC1=CC=C2/C3=N/CCN3\C(=N/C2=C1OC)NC(=O)C4=CC=CN=C4 | 98.5 | 98.2 | 106 | 96.8 | 101 | 104 | 96.7 | 103 | 87.1 | 82.5 | 64.1 | 91.6 | 94.4 | 99.7 | 89.5 | 99.5 | 79.4 | 85.2 | 99.6 | 76.6 | 80.6 | 55.7 | 122 | 111 | 111 | 103 | 117 | 113 | 99 | 92.9 | 84 | 81.1 | 69.2 |
| CO/N=C(\C(=O)N[C@@H]1C(=O)N2C(C(=O)OCOC(=O)C(C)(C)C)=C(/C=C\c3scnc3C)CS[C@H]12)c1csc(N)n1 | 75.6 | 89.4 | 86.9 | 80.8 | 93.7 | 101 | 94.8 | 97.3 | 86.7 | 90.6 | 70.4 | 87.1 | 90.7 | 91.4 | 76.6 | 89 | 103 | 91.5 | 98.9 | 86.5 | 65.2 | 58.5 | 75.3 | 101 | 108 | 93.7 | 119 | 102 | 99.4 | 125 | 105 | 73 | 62.9 |
| CC(C)(C)[C@H](NC(=O)c1ccc(N)c(Cl)c1)C(=O)N1CCC[C@H]1C(=O)N[C@H](C#N)CC(=O)O | 99.5 | 105 | 109 | 129 | 127 | 125 | 113 | 113 | 123 | 140 | 130 | 107 | 107 | 129 | 118 | 118 | 124 | 115 | 120 | 100 | 134 | 110 | 116 | 101 | 117 | 111 | 117 | 116 | 117 | 118 | 117 | 123 | 125 |
| CCOC(=O)\C1=C\[C@@H](OC(CC)CC)[C@H](NC(C)=O)[C@@H](N)C1 | 73.2 | 82.3 | 95.9 | 97.5 | 77.9 | 102 | 91.4 | 70.8 | 101 | 96.8 | 56 | 77.6 | 85.1 | 93.3 | 99.1 | 85 | 92.7 | 96.8 | 78.8 | 88.8 | 111 | 89.3 | 75.6 | 82.7 | 92.3 | 84.9 | 75.5 | 98.2 | 102 | 73.7 | 97.7 | 104 | 68.3 |
| OC1=CC2=C(C(=C1)O)C(=O)\C(=C(/O2)C3=CC(=C(O)C=C3)O)O | 89.1 | 84.2 | 93.4 | 99.4 | 98.2 | 94.4 | 97.4 | 110 | 111 | 94.8 | 75.1 | 79.7 | 97.7 | 106 | 96.1 | 99.6 | 109 | 106 | 105 | 108 | 102 | 71.5 | 83.6 | 85.2 | 92.1 | 88.3 | 111 | 104 | 115 | 101 | 92.6 | 104 | 69.8 |

From the supplement of paper PMC11451515
